Test: physchem
Settings: octan-1-ol/water, pH 7.4
With `COc1ccc2c(c1)cc(C(=O)O)n2Cc1ccc(Cl)c(Cl)c1` the logD was 1.66.
`O=C1O[C@]2(CN3CCC2CC3)CN1c1cccs1` showed a logD of 0.9.
Molecule `NC(=O)c1cccc(O[C@@H]2C[C@H]3CC[C@@H](C2)N3Cc2ccccc2)c1` has a logD of 1.76.
For `CCCCCc1ccc(-c2nnc(N)s2)cc1`, the logD was 4.13.
Work on `NC(=NCc1ccc(Cl)cc1)SCCCc1cnc[nH]1` [CLOBENPROPIT] yielded a logD of 1.13.
In the case of `CN1Cc2ccccc2C(c2ccc(Cl)cc2)C1` (stereo unspecified), the logD is reported as 3.64.
In the case of `CC(=O)O[C@H]1CC[C@]2(C=O)[C@H]3CC[C@]4(C)[C@@H](C5=CC(=O)OC5)CC[C@]4(O)[C@@H]3CC[C@]2(O)C1` [STROPHANTHIDIN ACETATE], the logD is reported as 0.64.
For `Clc1ccc(C2CC=CCNC2)cc1Cl` (stereo unspecified), the logD was 1.86.
Work on `CC(C)[C@H](N)C(=O)OCCOCn1cnc2c(=O)[nH]c(N)nc21` [VALACYCLOVIR] yielded a logD of -1.3.
With `Cc1ccc(-c2cc(C(=O)N3CCOCC3)c3cc(C)ccc3n2)cc1` the logD was 3.6.
`CNC(=O)c1cccc(O[C@H]2C[C@H]3CC[C@@H](C2)N3Cc2ccccc2)c1` gave a logD of 1.93.
In the case of `Cc1cc2c(C(C)C)c(O)c(O)c(C=O)c2c(O)c1-c1c(C)cc2c(C(C)C)c(O)c(O)c(C=O)c2c1O` [GOSSYPOL], the logD is reported as 2.75.
`O=c1cc(O)oc2c1c(=O)n(Cc1ccccc1)c1ccccc21` showed a logD of 1.97.

Same assay, conditions: octan-1-ol/water, pH 7.4, LogD7.4
`CN1CC(=O)N2[C@H](c3ccc4c(c3)OCO4)c3[nH]c4ccccc4c3C[C@@H]2C1=O` gave a logD of 2.6.
For `O=C1Nc2ccc(S(=O)(=O)N3CCC[C@H]3CNc3ccccc3)cc2C1=O`, the logD was 2.4.
In the case of `CC(=O)NC[C@H]1CN(c2ccc(-n3ccc(C#N)c3)c(F)c2)C(=O)O1`, the logD is reported as 1.6.
Molecule `CC(C)Cn1c(=O)n(C)c(=O)c2c(C(=O)N3CC[C@@H](O)C3)c(Cc3cncc4ccccc34)sc21` has a logD of 1.74.
Work on `CC(=O)N(C)c1ccc(Nc2ncc3cc(-c4ccncc4)ccc3n2)cc1` yielded a logD of 2.88.
`O=c1[nH]c(-c2ccccc2)nc2cc(Cl)ccc12` gave a logD of 3.31.
For `COc1cc2ncc(C(N)=O)c(Nc3cc(F)ccc3F)c2cc1OC`, the logD was 2.9.
Work on `CCCSc1nc(N2CCCCC2C(=O)O)ccc1C(=O)NC1CCCCC1` (stereo unspecified) yielded a logD of 1.36.
For `Fc1ccc(-n2cc(C3CCNCC3)c3cc(Cl)ccc32)cc1`, the logD was 2.4.
`COc1cc(F)ccc1-c1cncc(CNC2CCCC2)c1` gave a logD of 2.29.
Molecule `c1ccc(C2Cc3ccccc3CN2)cc1` (stereo unspecified) has a logD of 1.9.
For `Cc1ccc(-c2[nH]cnc2C)cc1NC(=O)c1ccc(OCc2ccccn2)cc1`, the logD was 2.87.
In the case of `COc1ccc2nc3ccccc3c(N)c2c1`, the logD is reported as 1.
Work on `O=[N+]([O-])c1ccc2[nH]c(-c3ccccn3)nc2c1` yielded a logD of 2.8.
For `CC(C)C[C@H](N)c1nnc(S(=O)(=O)Cc2ccc(F)cc2)o1`, the logD was 1.11.
Molecule `CNC(=O)c1cccc(S(=O)(=O)Nc2ncc(C)nc2OC)c1-c1ccc(CC(C)C)cc1` has a logD of 1.68.
Work on `COc1ccc(-c2cc(O)c3cc(Cl)ccc3n2)cc1` yielded a logD of 2.7.
`O=c1[nH]n(C(c2ccccc2)c2ccncc2)c(=O)c2c(O)c3ccc(Cl)cc3nc12` (stereo unspecified) showed a logD of 1.1.
With `N#CCc1c[nH]c2ccc(OCc3ccccc3)cc12` the logD was 3.71.
`COc1cc2ncc(C(N)=O)c(Nc3ccc(F)cc3F)c2cc1NCCN1CCOCC1` gave a logD of 2.68.
For `Cc1nc(NC(=N)N)nc2ccccc12`, the logD was -0.49.
Molecule `Cc1ccc2[nH]c(C(=O)N3CCN(C)CC3)cc2c1` has a logD of 2.22.
`O=c1oc2ccc(O)cc2cc1-c1ccccc1` gave a logD of 3.12.
Molecule `CC(Cc1cccc(CNCCc2c(Cl)cccc2Cl)c1)NC[C@H](O)c1ccc(O)c2[nH]c(=O)sc12` (stereo partly specified) has a logD of 2.41.
Work on `Cc1cc(CN2Cc3ccccc3C2C(=O)Nc2ccc(Cl)cc2)ccc1OCC(=O)O` (stereo unspecified) yielded a logD of 1.38.
For `NC(=O)c1cccc(OC2CCN(CC3CC3)CC2)c1`, the logD was 0.49.
With `C=CCn1c(=O)c2c(-c3cc(C#N)cn3C)n(Cc3ccnc4ccc(Cl)cc34)nc2n(CC2CC2)c1=O` the logD was 4.27.
`CCCN(CCC)S(=O)(=O)c1ccc(C(=O)O)cc1` [PROBENECID] showed a logD of 0.03.
With `Cn1c(=O)c2c(-c3ccc(S(C)(=O)=O)o3)n(Cc3ccnc4ccc(Cl)cc34)nc2n(CC2CC2)c1=O` the logD was 2.71.
With `Cc1[nH]c2nc(NCc3cccc(Cl)c3)nn2c(=O)c1Cc1ccccc1` the logD was 3.6.
Molecule `CC(=O)[C@H]1CC[C@H]2[C@@H]3C[C@H](C)C4=CC(=O)CC[C@]4(C)[C@H]3[C@@H](O)C[C@]12C` [MEDRYSONE] has a logD of 3.25.
In the case of `Clc1cccc2[nH]ncc12`, the logD is reported as 2.5.
In the case of `C=CCNS(=O)(=O)c1ccc(NC(=O)[C@@](C)(O)C(F)(F)F)c(Cl)c1`, the logD is reported as 3.07.
`CC(=O)N1CCOc2cc(COc3ccccc3)cnc21` gave a logD of 2.8.
With `CC[C@H](NC(=O)c1c([S+](C)[O-])c(-c2ccccc2)nc2cc(F)ccc12)c1ccccc1` (stereo partly specified) the logD was 3.62.
Work on `O=C(NCc1ccccc1)c1cccnc1Oc1ccccc1` yielded a logD of 3.
Molecule `N[C@H](Cc1c[nH]c2ccccc12)C(=O)O` [D-TRYPTOPHAN] has a logD of -0.92.
For `CCN(CCO)CCCOc1cc2ncnc(Nc3cc(CC(=O)Nc4cccc(F)c4)[nH]n3)c2cc1OC`, the logD was 2.12.
With `O=C(Nc1ccc(N2CCOCC2)cn1)c1nnc(Nc2ccccc2F)o1` the logD was 2.4.
For `CC1CC(=O)Nc2ccccc2N1` (stereo unspecified), the logD was 0.56.
`CC(C)Oc1ccc(S(C)(=O)=O)cc1C(=O)N1CCN(c2ccc(C(F)(F)F)cc2)CC1` showed a logD of 3.33.
For `CCc1c(C)[nH]c2c1C(=O)C(CN1CCOCC1)CC2` (stereo unspecified) [MOLINDONE], the logD was 1.54.
Molecule `CCOc1ccc2nc(NC(=O)CC)sc2c1` has a logD of 3.4.
Molecule `Cn1nnc2c(C(N)=O)ncn2c1=O` [TEMOZOLOMIDE] has a logD of -1.08.
With `Cc1cc(C)cc(CCOCCS(=O)(=O)NCCNCCc2ccc(O)c3nc(O)sc23)c1` the logD was 2.45.
`CN(c1ncccc1CNc1nc(Nc2ccc3c(c2)CC(=O)N3)ncc1C(F)(F)F)S(C)(=O)=O` [PF-00562271] showed a logD of 2.63.
In the case of `CCCc1c(OCCCSc2ccc(CC(=O)O)cc2Cl)ccc2c(CC)noc12` [L-165461], the logD is reported as 3.92.
`CCCCCOC(=O)Nc1nc(=O)n([C@@H]2O[C@H](C)[C@@H](O)[C@H]2O)cc1F` [CAPECITABINE] showed a logD of 0.67.
Molecule `CC1(c2ccc(Cl)cc2)CCN(C(=O)COCc2ccncc2)CC1` has a logD of 2.79.
In the case of `COCCN(C)Cc1ccc(Nc2ncc3cc(-c4ccncc4)ccc3n2)cc1`, the logD is reported as 2.65.
`O=C(O)Cc1csc(-c2ccc(Cl)cc2)n1` [FENCLOZIC ACID] showed a logD of -0.22.
Molecule `CC(C)C(NC(=O)Cn1c(-c2ccccc2)ncc(NC(=O)OCc2ccccc2)c1=O)C(=O)C(F)(F)F` (stereo unspecified) has a logD of 2.12.
`CC(C)n1c(=O)n(C)c(=O)c2c(C(=O)N3CCS(=O)(=O)C3)c(Cc3ccccc3C(F)(F)F)sc21` gave a logD of 2.55.
For `CCCSc1c(C(=O)N(C)C2CCCCC2)cnn1-c1ccc(C(=O)O)cc1`, the logD was 0.59.
`Cc1ccc(NC(=O)c2cccc(N(C)C)c2)cc1NC(=O)c1ccc(OC(C)C)cc1` showed a logD of 3.1.
Work on `N#Cc1cccc(OC[C@@H](O)CNC2CCN(Cc3ccc(Cl)c(Cl)c3)CC2)c1` yielded a logD of 3.09.
Work on `COc1ccnc(C[S+]([O-])c2nc3ccc(OC(F)F)cc3[nH]2)c1OC` (stereo unspecified) [PANTOPRAZOLE] yielded a logD of 2.
In the case of `CCCSc1ncccc1C(=O)N(C)[C@H]1[C@@H]2CC3C[C@H]1C[C@@](O)(C3)C2`, the logD is reported as 2.48.
For `COc1ccc(-c2cccc3c(N)c4c(nc23)CN(C2CCC2)C4=O)c(C)n1`, the logD was 3.92.
Molecule `O=C(N[C@H]1Cc2ccccc2N(C[C@@H](O)CO)C1=O)c1cc2cc(Cl)sc2[nH]1` has a logD of 3.3.
Molecule `O=c1ccnc2ccccn12` has a logD of 0.2.
`NS(=O)(=O)c1ccc(Nc2nccc(Nc3c(Cl)ccc4c3OCO4)n2)cc1` gave a logD of 2.7.
For `O=c1cc(N2CCOCC2)oc2cc(O)ccc12`, the logD was 1.
`Cc1ccc(-c2ncc[nH]2)cc1NC(=O)c1ccc(OCc2ccccn2)cc1` gave a logD of 3.01.
In the case of `Cc1cc(S(=O)(=O)N2CCN(C)CC2)ccc1-c1cnc(N)c(C(=O)Nc2cccnc2)n1`, the logD is reported as 2.6.
For `CC(C)(c1cc(N2CCOCC2)nc(-c2cccc3[nH]ccc23)n1)S(C)(=O)=O`, the logD was 2.65.
For `CN(C)c1nc(N(C)C)nc(N(C)C)n1` [ALTRETAMINE], the logD was 2.44.
In the case of `COc1cc2ncc(C(N)=O)c(Nc3cc(C)ccc3F)c2cc1OC`, the logD is reported as 3.16.
In the case of `Cn1c(-c2ccccc2)cc2onc(-c3ccncc3)c2c1=O`, the logD is reported as 3.17.
Molecule `COC(=O)c1nc2c(N[C@H](C)CO)nc(SCc3cccc(F)c3F)nc2[nH]c1=O` has a logD of 2.49.
`CN1CCN(CCCOc2ccc(-c3cc(-c4ccc(F)cc4)no3)cc2)CC1` showed a logD of 3.81.
`COc1ccc(C(=O)NCc2cccnc2)cc1C(=O)NCc1cccnc1` [PICOTAMIDE] gave a logD of 1.23.
`COc1cc(N2CCN(C(C)=O)CC2)ccc1Nc1ncc(Cl)c(-c2cnc3c(F)cc(F)cn23)n1` gave a logD of 3.2.
`O=C(OCC(O)CO)c1ccccc1Nc1ccnc2cc(Cl)ccc12` (stereo unspecified) [GLAFENINE] showed a logD of 3.5.
For `COc1ccc(OC)c(-c2c(F)ccc3c(N)c(C(=O)NC4CC4)nnc23)c1`, the logD was 3.47.
With `O=C(NCC12CC3CC(CC(C3)C1)C2)c1cc(C2CCNCC2)ccc1Cl` the logD was 1.58.
With `NS(=O)(=O)c1ccc2c(c1)C1C=CCC1C(c1cccc3ccccc13)N2` (stereo unspecified) the logD was 1.9.
With `Cc1cc(Nc2nc(NCc3ccccn3)ncc2Br)n[nH]1` the logD was 2.8.
Molecule `O=C(NCCN1CCCC1)c1ccc(Nc2ncc3cc(-c4ccncc4)ccc3n2)cc1` has a logD of 2.39.
`CC(=O)N[C@@H](C)c1ccc(Nc2ncc3cc(-c4ccncc4)ccc3n2)cc1` gave a logD of 3.17.
Work on `FC(F)(F)c1nnc2ccc(-n3ccnc3)nn12` yielded a logD of 0.91.
In the case of `C[C@H](NC(=O)C1(N)CCN(c2ncnc3[nH]ccc23)CC1)c1ccc(Cl)cc1`, the logD is reported as 2.67.
In the case of `CN(C)C(=O)N1CCC(C(=O)NCc2cccs2)CC1`, the logD is reported as 1.1.
`O=C(Nc1ccccc1)c1cc(Cl)ccc1O` gave a logD of 2.9.
For `Cc1ncc(-c2nc(Nc3ccc(C(=O)N(C)C)cc3)ncc2F)n1C(C)C`, the logD was 2.77.
With `Cc1ccc(CO)cc1N(C)c1ccnc(Nc2cc(N3CCCCC3)cc(N3CCOCC3)c2)n1` the logD was 4.2.
`O=C(Nc1ccc(O)cc1)c1ccc(O)cc1` gave a logD of 1.5.
For `CC(C)Cn1c(=O)n(C)c(=O)c2c(C(=O)N3CC=CC3)c(Cc3ccccc3C(F)(F)F)sc21`, the logD was 3.53.
In the case of `Cc1ccc2c(-c3ccnc4cc(Cl)ccc34)c(C)n(CC(=O)O)c2c1`, the logD is reported as 2.41.
For `COc1cc2ncc(C(N)=O)c(Nc3ccc(F)cc3F)c2cc1OC`, the logD was 2.95.
For `COC(=O)c1ccc(NC(=O)c2cc(OC)c(OC)c(OC)c2)cc1`, the logD was 3.2.
In the case of `COc1cc(OC2CCN(C)CC2)c2c(Nc3c(Cl)ccc4c3OCO4)ncnc2c1`, the logD is reported as 2.98.
For `NC(=O)c1cc(O)cc2nc(-c3ccc(O)cc3)oc12`, the logD was 2.3.

From ChEMBL document CHEMBL3301361, “Experimental in vitro DMPK and physicochemical data on a set of publicly disclosed compounds”
